Data as given in US20230346717A1, “IDENTIFICATION AND USE OF COMPOUNDS IN THE TREATMENT OR PREVENTION OF SEVERE ACUTE RESPIRATORY SYNDROME CORONAVIRUS 2” (priority 2020, published 2023).
Where a name gives a salt, the structure may show the parent alone.

Experiments:
[1] = within 14 days of treatment; cited from earlier work
CTSL = assay type: cell-based, human; conditions: ARPE-19/HPV-16 cells, 10 μM drug, 24 hours
Description: The retinal pigment epithelia cell line, ARPE-19/HPV-16, was chosen to establish a database of drug profiles because of its non-cancerous, human origin, with a normal karyotype.
Cells were aliquoted on 96-well plates (˜2×10^5 cells/well) and incubated for 24 hours prior to providing fresh media with a drug, or the drug vehicle (water, dimethyl sulfoxide, ethanol, methanol, or phosphate-buffered saline solution). Drugs were diluted 1000-fold in buffered Advanced D-MEM/F-12 culture medium (Invitrogen, Carlsbad, CA) containing nonessential amino acids and 110 mg/L sodium pyruvate.
Cells were harvested 24 hours after treatment and RNA was extracted using the RNeasy 96 protocol (Qiagen, Valencia, CA). Gene expression for 22,238 probe sets of 12,490 genes was generated with U133A2.0 microarrays following the manufacturer's instructions (Affymetrix, Santa Clara, CA). Drugs were profiled in duplicate or triplicate, with multiple vehicle controls on each plate. A total of 708 microarrays were analyzed including 74 for 18 antipsychotics, 499 for 448 other compounds, and 135 for vehicle controls.
The raw scan data were first converted to average difference values using MAS 5.0 (Affymetrix). The average difference values of both treatment and control data were set to a minimum threshold of 50 if below 50. For each treatment instance, all probe sets were then ranked based on their amplitude, or level of expression relative to the vehicle control (or average of controls when more than one was used). Amplitude was defined as the ratio of expression (t−v)/[(t+v)/2] where t corresponds to treatment instance and v to vehicle instance.
Each drug group profile was created using a novel Weighted Influence Model, Rank of Ranks (WIMRR) method which underscores the rank of each probe set across the entire gene expression profile rather than the specific change in expression level. WIMRR takes the average rank of each probe set across all of the members of the group and then re-ranks the probe sets from smallest average rank to largest average rank. A gene-set enrichment metric based on the Kolmogorov-Smirnov (KS) statistic.
Applicant analyzed expression profile of CTSL across all 466 drugs tested. In order to find positive hits and selected only those results that caused decrease of CTSL expression by at least 33% (1.5-fold down).

FYCO1 = assay type: cell-based, human; conditions: ARPE-19 cells
[2] = people with dyslipidemia; cited from earlier work
[3] = rats; cited from earlier work
[4] = people with heart failure; cited from earlier work
[5] = people with diabetes; cited from earlier work
[6] = people with nonalcoholic fatty liver disease; cited from earlier work
[7] = sepsis-induced acute lung injury in rats; cited from earlier work
[8] = 492 patients; cited from earlier work
[9] = 404 ALI patients and 177 controls; cited from earlier work
[10] = 230 ventilated patients with ALI; cited from earlier work

SMILES	log2(treated) CTSL (CTSL)	log2 difference (CTSL, treated vs control) (CTSL)	FYCO1 expression, Difference (treated vs control) (FYCO1)	FYCO1 expression, Treated (FYCO1)	other results
CC(C)c1c(C(=O)Nc2ccccc2)c(-c2ccccc2)c(-c2ccc(F)cc2)n1CC[C@@H](O)C[C@@H](O)CC(=O)O [Atorvastatin]	–	–	–	–	decrease of the level of CoQ10 [1]: 49%
CN1[C@@H]2CC[C@H]1C[C@@H](OC(=O)C(CO)c1ccccc1)C2 (some centres unmarked) [Atropine Sulfate]	9.63 log2	−0.70 log2	–	–	–
NCC(CC(=O)O)c1ccc(Cl)cc1 (centres unmarked) [Baclofen]	9.58 log2	−0.82 log2	−1.2190	6.7222	–
CN(C)CCC(c1ccc(Br)cc1)c1ccccn1 (centres unmarked) [Brompheniramine Maleate]	9.57 log2	−0.75 log2	–	–	–
COC1=C(OC)C(=O)C(C/C=C(\C)CC/C=C(\C)CC/C=C(\C)CC/C=C(\C)CC/C=C(\C)CC/C=C(\C)CC/C=C(\C)CC/C=C(\C)CC/C=C(\C)CCC=C(C)C)=C(C)C1=O [CoQ10, Coenzyme Q10]	–	–	–	–	endothelial dysfunction [2]: improve; fibrosis in the lung and liver [3]: beneficial in attenuating fibrosis; mortality and cardiac markers [4]: improves; total cholesterol and low-density lipoprotein levels [5]: improve; liver and systemic markers of inflammation [6]: improves; pulmonary edema [7]: improved; survival [7]: improved
O=C1NC(=O)C(c2ccccc2)(c2ccccc2)N1 [Phenytoin]	9.56 log2	−0.70 log2	–	–	–
Cc1ccc(/C(=C\CN2CCCC2)c2ccccn2)cc1 [Triprolidine Hydrochloride]	9.54 log2	−0.79 log2	−1.4935	6.4963	–
COc1ccc2c(c1)c(CC(=O)O)c(C)n2C(=O)c1ccc(Cl)cc1 [indomethacin]	–	–	−1.539	4.949	–
CCC1(c2ccccc2)C(=O)NCNC1=O [primidone]	–	–	−1.4959	6.4453	–
CC(C)(C)C(=O)Oc1ccc(S(=O)(=O)Nc2ccccc2C(=O)NCC(=O)O)cc1 [sivelestat]	–	–	–	–	28-day all-cause mortality [8]: no effect; ventilator free days [8]: no effect; number of ventilator free days [9]: significantly improved; 30-day survival rate [10]: no significant effect; ICU stay [10]: shortened; duration of mechanical ventilation [10]: reduced
